This note sets out measurements from patent publication US11753397B2, “Cereblon binders for the degradation of ikaros” (C4 Therapeutics, Inc., priority 2018, dated 2023).

The assay concerns NCIH929.1 cells. Put plainly: Cell viability assay (CellTiter-Glo 2.0, ATP quantification). The note with it: NCIH929.1 cell viability, CellTiter-Glo 2.0, 96 hr incubation, top concentration 1 μM. It is filed as cell-based. The protocol:
Example 59. Cell Viability Assay
RPMI 1640 medium, fetal bovine serum (FBS) and 2-mercaptoethanol were purchased from Gibco (Grand Island, N.Y., USA). CellTiter-Glo® 2.0 Assay was purchased from Promega (Madison, Wis., USA). NCIH929.1 cell line was purchased from ATCC (Manassas, Va., USA). Cell culture flasks and 384-well microplates were acquired from VWR (Radnor, Pa., USA).
NCIH929.1 cell viability was determined based on quantification of ATP using CellTiter-Glo® 2.0 luminescent Assay kit, which signals the presence of metabolically-active cells. Briefly, the test compound was added to 384-well plates at a top concentration of 1 μM with 10 points, half log titration in duplicates. NCIH929.1 cells were seeded into the 384-well plates in RPMI medium containing 10% FBS and 0.05 mM 2-mercaptoethanol at a cell density of 750 cells per well. Cells treated in the absence of the test compound were the negative control and cells treated in the absence of CellTiter-Glo® 2.0 were the positive control. At the same day of compound treatment, CellTiter-Glo® 2.0 was added to a plate with cells treated in the absence of the test compound to establish Cytostatic control value (CT0). Cells treated with the test compound were incubated at 37° C. with 5% CO2 for 96 hr. CellTiter-Glo reagent was then added to the cells and luminescence was acquired on EnVision™ Multilabel Reader (PerkinElmer, Santa Clara, Calif., USA).
What is called GI50 is the concentration giving 50% growth inhibition. With `CC1(C(=O)N2CCC(n3cc(CNc4cccc5c4C(=O)N(C4CCC(=O)NC4=O)C5=O)cn3)CC2)CC(F)(F)C1` (centres unmarked) [Compound 74, 4-(((1-(1-(3,3-difluoro-1-methylcyclobutane-1-carbonyl)piperidin-4-yl)-1H-pyrazol-4-yl)methyl)amino)-2-(2,6-dioxopiperidin-3-yl)isoindoline-1,3-dione], the GI50 was less than 100 nM.

As for `O=C1CCC(N2C(=O)c3cccc(NCc4cnn(C5CCN(C(=O)C6CCCCC6)CC5)c4)c3C2=O)C(=O)N1` (centres unmarked) [Compound 22, 4-(((1-(1-(cyclohexanecarbonyl)piperidin-4-yl)-1H-pyrazol-4-yl)methyl)amino)-2-(2,6-dioxopiperidin-3-yl)isoindoline-1,3-dione], the GI50 was less than 100 nM.

`CC(C)(C(=O)N1CCC(n2cc(CNc3cccc4c3C(=O)N(C3CCC(=O)NC3=O)C4=O)cn2)CC1)C(F)(F)F` (centres unmarked) [Compound 73, 2-(2,6-dioxopiperidin-3-yl)-4-(((1-(1-(3,3,3-trifluoro-2,2-dimethylpropanoyl)piperidin-4-yl)-1H-pyrazol-4-yl)methyl)amino)isoindoline-1,3-dione] had a concentration for 50% growth inhibition (GI50) of less than 100 nM.

Take `O=C1CCC(N2C(=O)c3cccc(NCc4cnn(C5CCN(C(=O)C6CC6)CC5)c4)c3C2=O)C(=O)N1` (centres unmarked) [Compound 24, 4-(((1-(1-(cyclopropanecarbonyl)piperidin-4-yl)-1H-pyrazol-4-yl)methyl)amino)-2-(2,6-dioxopiperidin-3-yl)isoindoline-1,3-dione]: the GI50 is less than 100 nM.

On to `O=C1CCC(N2C(=O)c3cccc(NCc4cnn(C5CCN(C(=O)C6(C7CC7)CCC6)CC5)c4)c3C2=O)C(=O)N1` (centres unmarked) [Compound 94, 4-(((1-(1-(1-cyclopropylcyclobutane-1-carbonyl)piperidin-4-yl)-1H-pyrazol-4-yl)methyl)amino)-2-(2,6-dioxopiperidin-3-yl)isoindoline-1,3-dione], for which the GI50 was less than 1 nM.

`CC(C)Oc1cc(C2CC2)cc(-n2cc(CNc3cccc4c3C(=O)N(C3CCC(=O)NC3=O)C4=O)cn2)c1` (centres unmarked) [Compound 180, 4-{[1-(3-Cyclopropyl-5-isopropoxy-phenyl)-1H-pyrazol-4-ylmethyl]-amino}-2-(2,6-dioxo-piperidin-3-yl)-isoindole-1,3-dione] gave a GI50 of less than 100 nM.

Compound `CC1(C(=O)N2CCC(n3ncc(CNc4cccc5c4C(=O)N(C4CCC(=O)NC4=O)C5=O)c3Br)CC2)CCC1` (centres unmarked) [Compound 188, 4-(((5-Bromo-1-(1-(1-methylcyclobutane-1-carbonyl)piperidin-4-yl)-1H-pyrazol-4-yl)methyl)amino)-2-(2,6-dioxopiperidin-3-yl)isoindoline-1,3-dione] displayed a GI50 of less than 100 nM.

Consider `O=C1CCC(N2C(=O)c3cccc(NCc4cnn(C5CCN(C(=O)C6CCN(C(=O)C7CCCC7)CC6)CC5)c4)c3C2=O)C(=O)N1` (centres unmarked) [Compound 107, 4-(((1-(1-(1-(cyclopentanecarbonyl)piperidine-4-carbonyl)piperidin-4-yl)-1H-pyrazol-4-yl)methyl)amino)-2-(2,6-dioxopiperidin-3-yl)isoindoline-1,3-dione], for which the GI50 is less than 100 nM.

`CCCCC(=O)N1CCC(n2cc(CNc3cccc4c3C(=O)N(C3CCC(=O)NC3=O)C4=O)cn2)CC1` (centres unmarked) [Compound 40, 2-(2,6-dioxopiperidin-3-yl)-4-(((1-(1-pentanoylpiperidin-4-yl)-1H-pyrazol-4-yl)methyl)amino)isoindoline-1,3-dione] gave a GI50 of less than 100 nM.

With `O=C1CCC(N2C(=O)c3cccc(NCc4cnn(CC(F)(F)F)c4)c3C2=O)C(=O)N1` (centres unmarked) [Compound 153, 2-(2,6-dioxo-3-piperidyl)-4-[[1-(2,2,2-trifluoroethyl)pyrazol-4-yl]methylamino]isoindoline-1,3-dione], the GI50 was less than 100 nM.

`CC1(C(=O)N2CCC(n3cc(CNc4cccc5c4C(=O)N(C4CCC(=O)NC4=O)C5=O)c(Cl)n3)CC2)CCC1` (centres unmarked) [Compound 191, 4-[[3-chloro-1-[1-(1-methylcyclobutanecarbonyl)-4-piperidyl]pyrazol-4-yl]methylamino]-2-(2,6-dioxo-3-piperidyl)isoindoline-1,3-dione] yielded a GI50 of less than 1 nM.

`N#CC1(C(=O)N2CCC(n3cc(CNc4cccc5c4C(=O)N(C4CCC(=O)NC4=O)C5=O)cn3)CC2)CCC1` (centres unmarked) [Compound 81, 1-(4-(4-(((2-(2,6-dioxopiperidin-3-yl)-1,3-dioxoisoindolin-4-yl)amino)methyl)-1H-pyrazol-1-yl)piperidine-1-carbonyl)cyclobutane-1-carbonitrile] displayed a GI50 of less than 100 nM.

In the case of `CC1(C(=O)N2CCC(n3cc(CNc4cccc5c4C(=O)N(C4CCC(=O)NC4=O)C5=O)cn3)CC2)CC1(Cl)Cl` (stereo in doubt) [Compound 182, 4-(((1-(1-((R)-2,2-Dichloro-1-methylcyclopropane-1-carbonyl)piperidin-4-yl)-1H-pyrazol-4-yl)methyl)amino)-2-(2,6-dioxopiperidin-3-yl)isoindoline-1,3-dione], the GI50 was less than 100 nM.

Compound `Cc1cncc(N2CCC(C(=O)N3CCC(n4cc(CNc5cccc6c5C(=O)N(C5CCC(=O)NC5=O)C6=O)cn4)CC3)CC2)n1` (centres unmarked) [Compound 122, 2-(2,6-dioxopiperidin-3-yl)-4-(((1-(1-(1-(6-methylpyrazin-2-yl)piperidine-4-carbonyl)piperidin-4-yl)-1H-pyrazol-4-yl)methyl)amino)isoindoline-1,3-dione] had a GI50 of less than 1 nM.

For `O=C1CCC(N2C(=O)c3cccc(NCc4cnn(-c5ccccc5)c4)c3C2=O)C(=O)N1` (centres unmarked) [Compound 145, 2-(2,6-dioxopiperidin-3-yl)-4-(((1-phenyl-1H-pyrazol-4-yl)methyl)amino)isoindoline-1,3-dione], the GI50 was less than 100 nM.

In turn, `COC1(C(=O)N2CCC(n3cc(CNc4cccc5c4C(=O)N(C4CCC(=O)NC4=O)C5=O)cn3)CC2)CCC1` (centres unmarked) [Compound 82, 2-(2,6-dioxopiperidin-3-yl)-4-(((1-(1-(1-methoxycyclobutane-1-carbonyl)piperidin-4-yl)-1H-pyrazol-4-yl)methyl)amino)isoindoline-1,3-dione] displayed a GI50 of less than 100 nM.

Regarding `[2H][C@@]1(N2C(=O)c3cccc(NCc4cnn(C5CCN(C(=O)OC(C)(C)C)CC5)c4)c3C2=O)CCC(=O)NC1=O` (single isomer, unassigned) [Compound 185], the GI50 was less than 100 nM.

Compound `O=C1CCC(N2C(=O)c3cccc(NCc4cnn(C5CCN(CC6CCCCC6)CC5)c4)c3C2=O)C(=O)N1` (centres unmarked) [Compound 127, 4-(((1-(1-(cyclohexylmethyl)piperidin-4-yl)-1H-pyrazol-4-yl)methyl)amino)-2-(2,6-dioxopiperidin-3-yl)isoindoline-1,3-dione] yielded a GI50 of less than 100 nM.

`O=C1CCC(N2C(=O)c3cccc(NCc4cnn(C5CCN(C(=O)CCC(F)(F)F)CC5)c4)c3C2=O)C(=O)N1` (centres unmarked) [Compound 30, 2-(2,6-dioxopiperidin-3-yl)-4-(((1-(1-(4,4,4-trifluorobutanoyl)piperidin-4-yl)-1H-pyrazol-4-yl)methyl)amino)isoindoline-1,3-dione] gave a GI50 of less than 100 nM.

In the case of `CC1(CN2CCC(n3cc(CNc4cccc5c4C(=O)N(C4CCC(=O)NC4=O)C5=O)cn3)CC2)CCCCC1` (centres unmarked) [Compound 132, 2-(2,6-dioxopiperidin-3-yl)-4-(((1-(1-((1-methylcyclohexyl)methyl)piperidin-4-yl)-1H-pyrazol-4-yl)methyl)amino)isoindoline-1,3-dione], the 50% growth inhibitory concentration (GI50) is less than 100 nM.
